Experimental data published in ChEMBL document CHEMBL3832062, “DailyMed|setid=a9c47f08-bd02-4731-aaf7-42173155b2d0 | XENICAL- orlistat capsule|A-S Medication Solutions LLC”.

Assay: Pharmacokinetic parameters for Orlistat evaluated after of oral administration of Orlistat capsules.
Format: ADME, organism-based
Conditions: human, in vivo, dosed compound id 42, dosed compound name ORLISTAT, tissue Plasma

half-life: 1 to 2 h | fraction unbound (read-out: Protein binding): 0.01 to 0.99
Compound: CCCCCCCCCCC[C@@H](C[C@@H]1OC(=O)[C@H]1CCCCCC)OC(=O)[C@H](CC(C)C)NC=O [ORLISTAT]
